According to the NIST ThermoML archive (doi:10.1016/j.fluid.2006.07.015):
Numbers after ± are expanded uncertainties.

Test: activity coefficient (dimensionless); of the first substance listed, at infinite dilution; xn = mol fraction of the nth substance listed
Conditions: 101 kPa, Liquid, Chromatography, x1 = 0

| SMILES | activity coefficient (373.15 K) | activity coefficient (388.15 K) | activity coefficient (403.15 K) | activity coefficient (418.15 K) | activity coefficient (433.15 K) |
| --- | --- | --- | --- | --- | --- |
| CC(C)CC(C)(C)C [2,2,4-trimethylpentane] + CCCCCCCCCCCCCCCCCCC(CCCCCCCCCCCCCCCCCC)CCCCC(CCCCCCCCCCCCCCCCCC)CCCCCCCCCCCCCCCCCC | 0.397 ± 0.034 | 0.401 ± 0.034 | 0.401 ± 0.034 | 0.405 ± 0.034 | 0.406 ± 0.034 |
| CCCCCCCCCCCC [dodecane] + CCCCCCCCCCCCCCCCCCC(CCCCCCCCCCCCCCCCCC)CCCCC(CCCCCCCCCCCCCCCCCC)CCCCCCCCCCCCCCCCCC | 0.456 ± 0.033 | 0.457 ± 0.033 | 0.459 ± 0.033 | 0.46 ± 0.033 | 0.462 ± 0.033 |
| C=CCCCCCCCCCCC [1-tridecene] + CCCCCCCCCCCCCCCCCCC(CCCCCCCCCCCCCCCCCC)CCCCC(CCCCCCCCCCCCCCCCCC)CCCCCCCCCCCCCCCCCC | 0.467 ± 0.033 | 0.466 ± 0.033 | 0.466 ± 0.033 | 0.467 ± 0.033 | 0.468 ± 0.033 |
| C=CCCCC [hex-1-ene] + CCCCCCCCCCCCCCCCCCC(CCCCCCCCCCCCCCCCCC)CCCCC(CCCCCCCCCCCCCCCCCC)CCCCCCCCCCCCCCCCCC | 0.354 ± 0.035 | 0.355 ± 0.035 | 0.356 ± 0.035 | 0.357 ± 0.035 | 0.359 ± 0.035 |
| CCC(C)CC(C)C (stereo not given) [2,4-dimethylhexane] + CCCCCCCCCCCCCCCCCCC(CCCCCCCCCCCCCCCCCC)CCCCC(CCCCCCCCCCCCCCCCCC)CCCCCCCCCCCCCCCCCC | 0.394 ± 0.034 | 0.396 ± 0.034 | 0.396 ± 0.034 | 0.398 ± 0.034 | 0.405 ± 0.034 |
| CCCc1ccccc1 [propylbenzene] + CCCCCCCCCCCCCCCCCCC(CCCCCCCCCCCCCCCCCC)CCCCC(CCCCCCCCCCCCCCCCCC)CCCCCCCCCCCCCCCCCC | 0.336 ± 0.035 | 0.339 ± 0.035 | 0.336 ± 0.035 | 0.331 ± 0.035 | 0.33 ± 0.035 |
| CCCCCCCCCCCCCC [tetradecane] + CCCCCCCCCCCCCCCCCCC(CCCCCCCCCCCCCCCCCC)CCCCC(CCCCCCCCCCCCCCCCCC)CCCCCCCCCCCCCCCCCC | 0.492 ± 0.033 | 0.493 ± 0.033 | 0.494 ± 0.033 | 0.495 ± 0.033 | 0.495 ± 0.033 |
| CC(C)C(C)(C)C [2,2,3-trimethylbutane] + CCCCCCCCCCCCCCCCCCC(CCCCCCCCCCCCCCCCCC)CCCCC(CCCCCCCCCCCCCCCCCC)CCCCCCCCCCCCCCCCCC | 0.34 ± 0.035 | 0.345 ± 0.035 | 0.348 ± 0.035 | 0.349 ± 0.035 | 0.355 ± 0.035 |
| C=CCCCCCCCCCCCC [1-tetradecene] + CCCCCCCCCCCCCCCCCCC(CCCCCCCCCCCCCCCCCC)CCCCC(CCCCCCCCCCCCCCCCCC)CCCCCCCCCCCCCCCCCC | 0.475 ± 0.033 | 0.476 ± 0.033 | 0.475 ± 0.033 | 0.476 ± 0.033 | 0.475 ± 0.033 |
| CCCCCCC [heptane] + CCCCCCCCCCCCCCCCCCC(CCCCCCCCCCCCCCCCCC)CCCCC(CCCCCCCCCCCCCCCCCC)CCCCCCCCCCCCCCCCCC | 0.361 ± 0.035 | 0.363 ± 0.035 | 0.365 ± 0.035 | 0.367 ± 0.034 | 0.37 ± 0.03 |
| C#CCCCCCCCC [1-decyne] + CCCCCCCCCCCCCCCCCCC(CCCCCCCCCCCCCCCCCC)CCCCC(CCCCCCCCCCCCCCCCCC)CCCCCCCCCCCCCCCCCC | 0.442 ± 0.033 | 0.446 ± 0.033 | 0.446 ± 0.033 | 0.446 ± 0.033 | 0.446 ± 0.033 |
| Cc1ccccc1 [toluene] + CCCCCCCCCCCCCCCCCCC(CCCCCCCCCCCCCCCCCC)CCCCC(CCCCCCCCCCCCCCCCCC)CCCCCCCCCCCCCCCCCC | 0.284 ± 0.036 | 0.284 ± 0.036 | 0.282 ± 0.036 | 0.278 ± 0.036 | 0.275 ± 0.036 |
| C1CC[C@H]2CCCC[C@@H]2C1 [trans-decahydronaphthalene] + CCCCCCCCCCCCCCCCCCC(CCCCCCCCCCCCCCCCCC)CCCCC(CCCCCCCCCCCCCCCCCC)CCCCCCCCCCCCCCCCCC | 0.268 ± 0.036 | 0.279 ± 0.036 | 0.283 ± 0.036 | 0.28 ± 0.036 | 0.287 ± 0.036 |
| C1CC[C@H]2CCCC[C@H]2C1 [cis-decahydronaphthalene] + CCCCCCCCCCCCCCCCCCC(CCCCCCCCCCCCCCCCCC)CCCCC(CCCCCCCCCCCCCCCCCC)CCCCCCCCCCCCCCCCCC | 0.268 ± 0.036 | 0.278 ± 0.036 | 0.28 ± 0.036 | 0.275 ± 0.036 | 0.279 ± 0.036 |

Further lines, results first:

| activity coefficient (373.15 K) | activity coefficient (388.15 K) | activity coefficient (403.15 K) | activity coefficient (418.15 K) | activity coefficient (433.15 K) | SMILES |
| --- | --- | --- | --- | --- | --- |
| 0.251 ± 0.036 | 0.253 ± 0.036 | 0.255 ± 0.036 | 0.252 ± 0.036 | 0.252 ± 0.036 | C1=CCCC=C1 [1,3-cyclohexadiene] + CCCCCCCCCCCCCCCCCCC(CCCCCCCCCCCCCCCCCC)CCCCC(CCCCCCCCCCCCCCCCCC)CCCCCCCCCCCCCCCCCC |
| 0.337 ± 0.035 | 0.339 ± 0.035 | 0.337 ± 0.035 | 0.342 ± 0.035 | 0.343 ± 0.035 | C1C2CC3CC1CC(C2)C3 [adamantane] + CCCCCCCCCCCCCCCCCCC(CCCCCCCCCCCCCCCCCC)CCCCC(CCCCCCCCCCCCCCCCCC)CCCCCCCCCCCCCCCCCC |
| 0.436 ± 0.033 | 0.438 ± 0.033 | 0.44 ± 0.033 | 0.442 ± 0.033 | 0.444 ± 0.033 | CCCCCCCCCCC [undecane] + CCCCCCCCCCCCCCCCCCC(CCCCCCCCCCCCCCCCCC)CCCCC(CCCCCCCCCCCCCCCCCC)CCCCCCCCCCCCCCCCCC |
| 0.354 ± 0.035 | 0.355 ± 0.035 | 0.356 ± 0.035 | 0.357 ± 0.035 | 0.359 ± 0.035 | C=CCCCCC [1-heptene] + CCCCCCCCCCCCCCCCCCC(CCCCCCCCCCCCCCCCCC)CCCCC(CCCCCCCCCCCCCCCCCC)CCCCCCCCCCCCCCCCCC |
| 0.411 ± 0.034 | 0.413 ± 0.034 | 0.413 ± 0.034 | 0.416 ± 0.034 | 0.418 ± 0.034 | C=CCCCCCCCC [1-decene] + CCCCCCCCCCCCCCCCCCC(CCCCCCCCCCCCCCCCCC)CCCCC(CCCCCCCCCCCCCCCCCC)CCCCCCCCCCCCCCCCCC |
| 0.428 ± 0.034 | 0.424 ± 0.034 | 0.417 ± 0.034 | 0.412 ± 0.034 | 0.411 ± 0.034 | C#CCCCCCC [1-octyne] + CCCCCCCCCCCCCCCCCCC(CCCCCCCCCCCCCCCCCC)CCCCC(CCCCCCCCCCCCCCCCCC)CCCCCCCCCCCCCCCCCC |
| 0.445 ± 0.033 | 0.443 ± 0.033 | 0.438 ± 0.033 | 0.431 ± 0.034 | 0.425 ± 0.034 | C#CCCCCCCC [1-nonyne] + CCCCCCCCCCCCCCCCCCC(CCCCCCCCCCCCCCCCCC)CCCCC(CCCCCCCCCCCCCCCCCC)CCCCCCCCCCCCCCCCCC |
| 0.447 ± 0.033 | 0.449 ± 0.033 | 0.453 ± 0.033 | 0.453 ± 0.033 | 0.455 ± 0.033 | C=CCCCCCCCCCC [1-dodecene] + CCCCCCCCCCCCCCCCCCC(CCCCCCCCCCCCCCCCCC)CCCCC(CCCCCCCCCCCCCCCCCC)CCCCCCCCCCCCCCCCCC |
| 0.353 ± 0.035 | 0.357 ± 0.035 | 0.36 ± 0.035 | 0.362 ± 0.035 | 0.366 ± 0.035 | CCC(C)C(C)CC (stereo not given) [3,4-dimethylhexane] + CCCCCCCCCCCCCCCCCCC(CCCCCCCCCCCCCCCCCC)CCCCC(CCCCCCCCCCCCCCCCCC)CCCCCCCCCCCCCCCCCC |
| 0.399 ± 0.034 | 0.401 ± 0.034 | 0.403 ± 0.034 | 0.404 ± 0.034 | 0.406 ± 0.034 | CCCCCCCCC [nonane] + CCCCCCCCCCCCCCCCCCC(CCCCCCCCCCCCCCCCCC)CCCCC(CCCCCCCCCCCCCCCCCC)CCCCCCCCCCCCCCCCCC |
| 0.271 ± 0.036 | 0.277 ± 0.036 | 0.279 ± 0.036 | 0.28 ± 0.036 | 0.285 ± 0.036 | C[C@@H]1CCCC[C@@H]1C [cis-1,2-dimethylcyclohexane] + CCCCCCCCCCCCCCCCCCC(CCCCCCCCCCCCCCCCCC)CCCCC(CCCCCCCCCCCCCCCCCC)CCCCCCCCCCCCCCCCCC |
| 0.26 ± 0.036 | 0.268 ± 0.036 | 0.269 ± 0.036 | 0.266 ± 0.036 | 0.27 ± 0.036 | C1CCC2CCCC2C1 (stereo not given) [1H-indene, octahydro-] + CCCCCCCCCCCCCCCCCCC(CCCCCCCCCCCCCCCCCC)CCCCC(CCCCCCCCCCCCCCCCCC)CCCCCCCCCCCCCCCCCC |
| 0.269 ± 0.036 | 0.281 ± 0.036 | 0.283 ± 0.036 | 0.287 ± 0.036 | 0.288 ± 0.036 | C1CCCCCCCCC1 [cyclodecane] + CCCCCCCCCCCCCCCCCCC(CCCCCCCCCCCCCCCCCC)CCCCC(CCCCCCCCCCCCCCCCCC)CCCCCCCCCCCCCCCCCC |
| 0.353 ± 0.035 | 0.356 ± 0.035 | 0.358 ± 0.035 | 0.36 ± 0.035 | 0.362 ± 0.035 | CC(C)C(C)C(C)C [2,3,4-trimethylpentane] + CCCCCCCCCCCCCCCCCCC(CCCCCCCCCCCCCCCCCC)CCCCC(CCCCCCCCCCCCCCCCCC)CCCCCCCCCCCCCCCCCC |
| 0.435 ± 0.033 | 0.436 ± 0.033 | 0.435 ± 0.033 | 0.436 ± 0.033 | 0.436 ± 0.033 | C=CCCCCCCCCC [1-undecene] + CCCCCCCCCCCCCCCCCCC(CCCCCCCCCCCCCCCCCC)CCCCC(CCCCCCCCCCCCCCCCCC)CCCCCCCCCCCCCCCCCC |
| 0.436 ± 0.033 | 0.429 ± 0.034 | 0.424 ± 0.034 | 0.421 ± 0.034 | 0.416 ± 0.034 | CCCC#CCCC [4-octyne] + CCCCCCCCCCCCCCCCCCC(CCCCCCCCCCCCCCCCCC)CCCCC(CCCCCCCCCCCCCCCCCC)CCCCCCCCCCCCCCCCCC |
